Assay results taken from patent publication US5238922A, “Inhibitors of farnesyl protein transferase” (Merck & Co., Inc., priority 1991, dated 1993).
pIC50: −log10 of the molar value.

How the values were obtained:
[1] = target: T1, Farnesyl-protein transferase (FTase) from bovine brain (Bos taurus, UniProt P29702+P49355); assay: In vitro inhibition of Ras Farnesyl Transferase; assay type: biochemical; settings: partially purified bovine brain FTase; Ras-CVLS 3.5 μM, 0.25 μM [3H]FPP; read-out: IC50 (concentration of compound which gives 50% inhibition of FTase)
T1 construct: incubated with this partially purified enzyme preparation; from tissue; host or cells: bovine brain
Description: Farnesyl-protein transferase (FTase) from bovine brain was chromatographed on DEAE-Sephacel (Pharmacia, 0-0.8M NaCl gradient elution), N-octyl agarose (Sigma, 0-0.6M NaCl gradient elution),, and a mono Q HPLC column (Pharmacia, 0-0.3M NaCl gradient). Ras-CVLS at 3.5 μM, 0.25 μM [^3 H]FPP, and the indicated compounds were incubated with this partially purified enzyme preparation. The FTase data presented below is a measurement of the ability of the test compound to inhibit Ras farnesylation in vitro.

[2] = test system: Ras farnesylation in the v-ras cell line (viral Ha-ras p21); assay: In vivo ras farnesylation assay (v-ras cell line); assay type: cell-based
Description: The cell line used in this assay was the v-ras line, which expressed viral Ha-ras p21. The assay was performed essentially as described in DeClue, J. E. et. al., Cancer Research 51, 712-717, (1991). Cells in 10 cm dishes at 50-75% confluency were treated with the test compound (final concentration of solvent, methanol or dimethyl sulfoxide, was 0.1%). After 4 hours at 37° C., the cells were labelled in 3 ml methionine-free DMEM supplemented with 10% regular DMEM, 2% fetal bovine serum and 400 μCi[^35 S]methionine (1000 Ci/mmol). After an additional 20 hours, the cells were lysed in 1 ml lysis buffer (1% NP40/20 mM HEPES, pH 7.5/5 mM MgCl2 /1 mM DTT/10 μg/ml aprotinen/2 μg/ml leupeptin/2 μg/ml antipain/0.5 mM PMSF) and the lysates cleared by centrifugation at 100,000×g for 45 min. Aliqouts of lysates containing equal numbers of acid-precipitable counts were bought to 1 ml with IP buffer (lysis buffer lacking DTT) and immunoprecipitated with the ras-specific monoclonal antibody Y13-259 (Furth, M. E. et. al., J. Virol. 43, 294-304, (1982)). Following a 2 hour antibody incubation at 4° C., 200 μl of a 25% suspension of protein A-Sepharose coated with rabbit anti rat IgG was added for 45 min. […]

CSCC[C@H](NC(=O)[C@H](Cc1ccccc1)NC[C@@H](NC(=O)[C@@H](N)CS)C(C)C)C(=O)O [N-(3-methyl-2(S)-(cysteinylamino)but-1-yl)phenylalanyl-methionine]
pIC50 [1]: 8.15

CCOC(=O)[C@H](CCSC)NC(=O)[C@H](Cc1ccccc1)NC(=O)[C@@H](NC[C@@H](N)CS)[C@@H](C)CC [N-(2(R)-amino-3-mercaptopropyl)isoleucyl-phenylalanyl-methionine ethyl ester]
pIC50 [1]: 5.70 | Inhibition of Ras Farnesylation in the v-ras cell line ([2]; at 10 μm test concentration): 10%

CC[C@H](C)[C@@H](CN[C@@H](Cc1ccccc1)C(=O)N[C@@H](CCSC)C(=O)O)NC[C@@H](N)CS [N-[2(S)-(2(R)-amino-3-mercaptopropylamino)-3(S)-methylpentyl]phenylalanyl-methionine]
pIC50 [1]: 8.33 | Inhibition of Ras Farnesylation in the v-ras cell line ([2]; at 100 μm test concentration): 30%
